Reference: ChEMBL document CHEMBL5375994, “Advances in Development of Selective Antitumor Inhibitors That Target PARP-1” (J Med Chem, 2023)

What was measured:
[1] = biological target: Poly [ADP-ribose] polymerase 1 (Homo sapiens, UniProt P09874); experiment: Inhibition of human recombinant PARP-1
[2] = biological target: Poly [ADP-ribose] polymerase 2 (Homo sapiens, UniProt Q9UGN5); experiment: Inhibition of PARP-2 (unknown origin)
Poly [ADP-ribose] polymerase 2, sequence (Q9UGN5 whole entry): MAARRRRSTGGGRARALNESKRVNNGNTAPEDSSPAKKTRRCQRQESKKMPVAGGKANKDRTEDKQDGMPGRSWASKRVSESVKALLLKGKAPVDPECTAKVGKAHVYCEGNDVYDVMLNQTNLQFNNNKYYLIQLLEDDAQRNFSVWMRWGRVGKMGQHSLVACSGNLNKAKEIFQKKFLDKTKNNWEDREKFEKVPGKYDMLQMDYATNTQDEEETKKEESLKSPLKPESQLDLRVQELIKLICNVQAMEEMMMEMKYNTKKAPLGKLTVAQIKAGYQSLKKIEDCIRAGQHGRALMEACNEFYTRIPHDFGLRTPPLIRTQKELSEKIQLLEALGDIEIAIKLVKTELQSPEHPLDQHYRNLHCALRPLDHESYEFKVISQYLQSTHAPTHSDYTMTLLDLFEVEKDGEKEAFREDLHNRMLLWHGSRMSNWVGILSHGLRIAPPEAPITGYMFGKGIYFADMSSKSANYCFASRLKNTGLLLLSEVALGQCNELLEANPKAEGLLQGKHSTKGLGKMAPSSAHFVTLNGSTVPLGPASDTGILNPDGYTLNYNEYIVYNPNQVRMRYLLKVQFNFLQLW

Poly [ADP-ribose] polymerase 1, sequence (P09874 whole entry): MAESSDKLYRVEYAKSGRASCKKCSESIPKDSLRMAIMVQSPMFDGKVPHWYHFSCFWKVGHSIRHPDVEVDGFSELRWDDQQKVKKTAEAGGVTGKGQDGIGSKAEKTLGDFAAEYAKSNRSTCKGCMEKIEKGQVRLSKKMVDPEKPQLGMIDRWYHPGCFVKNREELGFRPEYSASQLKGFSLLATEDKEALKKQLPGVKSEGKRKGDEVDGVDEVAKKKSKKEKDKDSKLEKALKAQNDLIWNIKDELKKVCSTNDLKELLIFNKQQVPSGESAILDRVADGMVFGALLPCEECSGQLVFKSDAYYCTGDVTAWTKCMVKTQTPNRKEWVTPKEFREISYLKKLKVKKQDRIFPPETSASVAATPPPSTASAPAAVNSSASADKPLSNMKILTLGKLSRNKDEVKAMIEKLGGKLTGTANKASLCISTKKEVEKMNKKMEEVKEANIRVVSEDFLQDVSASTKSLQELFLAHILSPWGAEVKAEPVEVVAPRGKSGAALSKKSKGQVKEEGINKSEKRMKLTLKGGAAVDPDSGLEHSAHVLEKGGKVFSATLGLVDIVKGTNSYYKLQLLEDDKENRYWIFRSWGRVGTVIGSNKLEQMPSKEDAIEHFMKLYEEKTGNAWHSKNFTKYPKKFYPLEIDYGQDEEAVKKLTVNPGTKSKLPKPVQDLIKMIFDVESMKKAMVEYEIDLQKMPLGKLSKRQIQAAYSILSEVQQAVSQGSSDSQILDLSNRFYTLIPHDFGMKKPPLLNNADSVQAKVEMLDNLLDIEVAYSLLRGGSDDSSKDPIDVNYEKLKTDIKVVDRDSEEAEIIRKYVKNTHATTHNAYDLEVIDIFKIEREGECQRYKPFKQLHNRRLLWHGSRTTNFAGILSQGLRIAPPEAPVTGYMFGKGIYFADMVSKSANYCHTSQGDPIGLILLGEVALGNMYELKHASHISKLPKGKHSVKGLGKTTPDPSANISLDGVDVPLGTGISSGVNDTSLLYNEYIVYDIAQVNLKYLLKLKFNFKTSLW

| IC50 [1] | IC50 [2] | SMILES |
| --- | --- | --- |
| 21 nM | 608 nM | O=c1[nH]c(CCCN2CCC(c3ccccc3)CC2)nc2ccccc12 |
| 23 nM | 610 nM | O=c1[nH]c(CCCN2CCC(c3ccccc3)CC2)nc2c(Cl)cccc12 |
| 13 nM | 500 nM | O=c1[nH]c(CCCN2CCC(c3ccc(F)cc3)CC2)nc2c(Cl)cccc12 |
| 3 nM | 87 nM | N#Cc1ccc(C2CCN(CCCc3nc4c(Cl)cccc4c(=O)[nH]3)CC2)cc1 |
| 16 nM | 167 nM | Cc1cccc2c(=O)[nH]c(CCCN3CCC(c4ccc(F)cc4)CC3)nc12 |
| 68 nM | 630 nM | O=c1[nH]c(CCCN2CCC(c3ccccc3)CC2)nc2cccc(Cl)c12 |
| 11 nM | 300 nM | O=c1[nH]c(CCCN2CCN(c3ccccc3)CC2)nc2cccc(Cl)c12 |
